According to patent US9955689B2, “Method for promoting plant growth” (SUMITOMO CHEMICAL COMPANY, LIMITED, priority 2012, dated 2018):

What follows are compounds tested on Nicotiana benthamiana (assay: Test Example 6: growth promotion under low-temperature stress by hydroponics of Nicotiana benthamiana (0.1 ppm)). Details: compound at 0.1 ppm, 7 days at 1.5±1.0° C. low-temperature stress, then 3 days at 22° C., 5 or greater = growth promotion effect, read-out: value of a relative leaf area (Equation (1), area of green leaf).
Assay type: in vivo
Experimental: Test Example 6. Test for Evaluating Growth Promotion Under Low-Temperature Stress by Hydroponics of Nicotiana benthamiana
(Cultivation and Compound Treatment)
A DMSO solution, which contained one of the compounds 2, 3, 7, 11 to 13, 20, 23, 24, 30, 38, 39, 41 to 43, 46, 50, 64, 68, 80, 82, 88, 93, 94, 96, 104, 107, and 112 of the present invention at a concentration of […], was prepared. The DMSO solution of the compound of the present invention was added at a volume ratio of 1/1,000 to the Murashige⋅Scoog medium of a ½-fold concentration (a medium containing 2.3 g of mixed salts (manufactured by Wako Pure Chemical Industries, Ltd.), 200 mg of Myo-inositol (manufactured by Sigme-Aldrich Co. LLC.), 2 mg of niconitic acid (manufactured by Wako Pure Chemical Industries, Ltd.), 2 mg of pyridoxine hydrochloride (manufactured by Wako Pure Chemical Industries, Ltd.), 20 mg of thiamine hydrochloride (manufactured by Wako Pure Chemical Industries, Ltd.), 20 g of sucrose (manufactured by Wako Pure Chemical Industries, Ltd.), and 1 g of […] (manufactured by DOJINDO LABORATORIES) respectively per 1 L of water and having pH adjusted to 5.8), thereby preparing a medium containing the compound of the present invention at a concentration of 0.1 ppm.
Seeds of Nicotiana benthamiana were seeded in the 5 μL of the medium and cultured overnight at 22° C. Thereafter, 45 μL of the medium containing the compound of the present invention at a concentration of 0.1 ppm was added thereto, and the seeds are cultured for 7 days at 22° C. under the conditions of an illuminance of 4,000 lux, and a day length of 16 hours, and the seedlings raised from the Nicotiana benthamiana were treated with the compound. Moreover, instead of the above medium a test plot, which was obtained by performing the same treatment by using a medium prepared by adding DMSO to the Murashige′Scoog medium of ½-fold concentration at a volume ratio of 1/1,000, was used as a control plot not treated with the compound.
(Low-Temperature Stress Treatment)
The seedlings of the Nicotiana benthamiana treated with the compound were subjected to low-temperature treatment by being cultured for 7 days at 1.5±1.0° C., under the conditions of an illuminance of 2,000 lux, and a day length of 16 hours.
The seedlings of the Nicotiana benthamiana having undergone the low-temperature stress treatment were cultured for 3 days at 22° C., under the conditions of an illuminance of 4,000 lux, and a day length of 16 hours. Thereafter, the area of green leaf was quantified by Scanalyzer HTS (manufactured by LemnaTec GmbH). Moreover, the value of the control plot not treated with the compound that had not yet been subjected to the low-temperature stress treatment was measured in the same manner. A value of a relative leaf area was calculated based on the following equation (1), and if the relative value of leaf area was 5 or greater, the compound was evaluated to have a growth promotion effect. As a result of the evaluation, it was confirmed that when the plant was treated with one of the compounds 2, 3, 7, 11 to 13, 20, 23, 24, 30, 38, 39, 41 to 43, 46, 50, 64, 68, 80, 82, 88, 93, 94, 96, 104, 107, and 112 of the present invention at 0.1 ppm, the value of a relative leaf area was 5 or greater, compared to the area of green leaf of the control plot not treated with compound. Accordingly, it was confirmed that the treatment using the compound of the present invention improve a growth promotion effect. Relative leaf area=100*(a green area of a plot treated with the compound of the present invention minus(−) a green area of a plot not treated with the compound of the present invention)/(a green area of a control plot not treated with the compound of the present invention that had not yet been subjected to low-temperature stress treatment minus(−) green area of a control plot not treated with the compound of the present invention) Equation (1): […]
`O=C(O)c1cc2cc(F)ccc2s1` [Present compound 2, 5-fluorobenzo[b]thiophene-2-carboxylic acid] was tested, and the relative green leaf area at 0.1 ppm was at least 5%.
`Cc1cccc2sc(C(=O)O)cc12` [Present compound 20, 4-methylbenzo[b]thiophene-2-carboxylic acid] gave a relative green leaf area at 0.1 ppm of at least 5%.
Compound `Cc1cccc2cc(C(=O)O)sc12` [Present compound 23, 7-methylbenzo[b]thiophene-2-carboxylic acid] has a relative green leaf area at 0.1 ppm of at least 5%.
Compound `Cc1c(C(=O)O)sc2ccccc12` [Present compound 24, 3-methylbenzo[b]thiophene-2-carboxylic acid] has a relative green leaf area at 0.1 ppm of at least 5%.
In the case of `C=Cc1ccc2cc(C(=O)O)sc2c1` [Present compound 30, 6-vinylbenzo[b]thiophene-2-carboxylic acid], the relative green leaf area at 0.1 ppm is reported as at least 5%.
`O=C(O)c1cc2cc(-c3cccc(Cl)c3)ccc2s1` [Present compound 38, 5-(3-chlorophenyl)benzo[b]thiophene-2-carboxylic acid] showed a relative green leaf area at 0.1 ppm of at least 5%.
For `O=C(O)c1cc2cc(-c3ccc(Cl)cc3)ccc2s1` [Present compound 39, 5-(4-chlorophenyl)benzo[b]thiophene-2-carboxylic acid], the relative green leaf area at 0.1 ppm was at least 5%.
With `O=C(O)c1cc2cc(-c3ccncc3)ccc2s1` [Present compound 46, 5-(4-pyridyl)benzo[b]thiophene-2-carboxylic acid] the relative green leaf area at 0.1 ppm was at least 5%.
`O=C(O)c1cc2cc(-c3cccs3)ccc2s1` [Present compound 50, 5-(2-thienyl)benzo[b]thiophene-2-carboxylic acid] showed a relative green leaf area at 0.1 ppm of at least 5%.
Work on `CN(C)c1cccc2sc(C(=O)O)cc12` [Present compound 64, 4-(dimethylamino)benzo[b]thiophene-2-carboxylic acid] yielded a relative green leaf area at 0.1 ppm of at least 5%.
`O=C(O)c1sc2ccccc2c1O` [Present compound 80, 3-hydroxybenzo[b]thiophene-2-carboxylic acid] showed a relative green leaf area at 0.1 ppm of at least 5%.
Work on `COc1ccc2sc(C(=O)O)cc2c1` [Present compound 82, 5-methoxybenzo[b]thiophene-2-carboxylic acid] yielded a relative green leaf area at 0.1 ppm of at least 5%.
`O=C(O)c1sc2ccccc2c1OCc1ccccc1` [Present compound 88, 3-benzyloxybenzo[b]thiophene-2-carboxylic acid] was tested, and the relative green leaf area at 0.1 ppm was at least 5%.
`Cc1ccccc1Oc1cccc2cc(C(=O)O)sc12` [Present compound 94, 7-(2-methylphenoxy)benzo[b]thiophene-2-carboxylic acid] was tested, and the relative green leaf area at 0.1 ppm was at least 5%.
For `O=C(O)c1cc2cccc(Oc3ccc(OC(F)(F)F)cc3)c2s1` [Present compound 96], the relative green leaf area at 0.1 ppm was at least 5%.
Compound `O=C(O)c1cc2cc(C(F)(F)F)cc(Cl)c2s1` [Present compound 104, 7-chloro-5-trifluoromethylbenzo[b]thiophene-2-carboxylic acid] has a relative green leaf area at 0.1 ppm of at least 5%.
`O=C(O)c1sc2ccc(C(F)(F)F)cc2c1C(F)(F)F` [Present compound 107, 3,5-bis(trifluoromethyl)benzo[b]thiophene-2-carboxylic acid] was tested, and the relative green leaf area at 0.1 ppm was at least 5%.
`COc1c(C(=O)O)sc2ccc(C(F)(F)F)cc12` [Present compound 112, 3-methoxy-5-trifluoromethylbenzo[b]thiophene-2-carboxylic acid] gave a relative green leaf area at 0.1 ppm of at least 5%.

These compounds were tested on Corn (Variety: Pioneer 31P41) (assay: Test Example 8: growth promotion under low-temperature stress by corn seed treatment). Details: corn seed treatment: compound 21 0.5 g, compound 55 0.5 g, 5 g or 50 g per 100 kg corn seeds; 4 days at 2.5±1° C., then 4 days at 27° C.
Assay type: in vivo
Experimental: Test Example 8. Test for Evaluating Growth Promotion Under Low-Temperature Stress by Corn Seed Treatment
Corn (Variety: Pioneer 31P41 (Manufactured by Pioneer Hi-Bred Japan)
A blank slurry solution containing 10% (V/V) color coat red (Becker Underwood, Inc.), 10% (V/V) CF-Clear (Becker Underwood, Inc.), and 1.66% Maxim4FS (Syngenta) was prepared. The compound 21 of the present invention was dissolved in the blank slurry such that 0.5 g of the compound was used for treatment per 100 kg corn seeds, and the compound 55 of the present invention was dissolved in the blank slurry such that 0.5 g, 5 g or 50 g of the compound was used for treatment per 100 kg corn seeds respectively, thereby preparing a slurry solution.
Zero point three five (0.35) ml of the slurry solution per 14.4 g of the seeds was put into a 50 ml centrifugal settling tube (manufactured by Becton, Dickinson and Company, Japan), and the slurry solution was stirred until it dries, thereby coating the seeds. Moreover, the seeds coated with the blank slurry were used as seeds for an untreated control plot. […]
After low-temperature stress treatment was performed, the seeds were cultured for 4 days at 27° C., under the conditions of an illuminance of 5,000 lux, and a day length of 16 hours. Thereafter, a fresh weight of the aerial part in plant was measured, and an average weight of each individual was determined. […]
In the case of `Cc1ccc2sc(C(=O)O)cc2c1` [Present compound 21], the “fresh weight of the aerial part compared with the untreated control plot” value is reported as “larger”.
